Assay results published in patent publication US20020091124A1, “2-acyl indole derivatives and their use as antitumor agents” (priority 2000, published 2002).
Values after ≈ are worked out from the molar mass of the structure shown.

Legend:
[1] = test system: T1, bovine brain tubulin; assay: Bovine tubulin polymerization assay; type: biochemical; conditions: inhibition of tubulin polymerization; read-out: Tubulin-hemmung/ IC50
T1 construct: The tubulin used in the assay was isolated from bovine brain using cycles of polymerization and depolymerization
Method: In an in vitro test, selected compounds were tested for inhibition of polymerization of bovine brain. In this test, tubulin purified by cycles of polymerization and depolymerization, polymerization being initiated by addition of GTP and heating, is used.
The tubulin used in the assay was isolated from bovine brain using cycles of polymerization and depolymerization. […] The appropriate amount of test substance, dissolved in 100% DMSO, is pipetted to this mixture. 10 μl of purified bovine tubulin (50-60 μg of tubulin per well) are then added. […] 200 μl/well of decolorizing solution (25 mM NaOH, 50% ethanol, 0.05 mM EDTA) are finally added using a pipette. Following a 20 minute incubation at room temperature on a shaker (400 rpm), the absorption of 600 nm [sic] is measured in a photometer. What is calculated is the inhibition in % based on the 100% value of a positive control (which contains no test substance), and/or, if a concentration/activity curve is plotted, the lC50 value.

[2] = test system: human cervical carcinoma cell line KB/HeLa; assay: XTT cytotoxicity test, KB/HeLa; type: cell-based; conditions: read-out: Zytotoxizität KB/HeLa IC50

| Compound | IC50 [1] [µM] | IC50 [2] [mg/L] |
| --- | --- | --- |
| COc1ccc2[nH]c(C(=O)c3ccc(Br)cc3)cc2c1 [Example D-65499, 5-methoxy-1H-2-indolyl(4-bromophenyl)-1-methanone] | 4.3 | ~0.3 (≈ 0.909 µM) |
| COc1ccc2[nH]c(C(=O)c3ccc(Cl)cc3)cc2c1 [Example D-65500, 5-methoxy-1H-2-indolyl(4-chlorophenyl)-1-methanone] | 4.98 | ~1 (≈ 3.5 µM) |
| COc1ccc2[nH]c(C(=O)c3cccc4ccccc34)cc2c1 [Example D-68213, 5-methoxy-1H-2-indolyl(1-naphthalenyl)-1-methanone] | 2.93 | ~0.1 (≈ 0.332 µM) |
| COc1ccc2[nH]c(C(=O)c3ccc(C)cc3)cc2c1 [Example D-68887, 5-methoxy-1H-2-indolyl(4-methylphenyl)-1-methanone] | 1.5 | ~0.3 (≈ 1.13 µM) |
| COc1ccc2[nH]c(C(=O)c3ccccc3F)cc2c1 [Example D-68888, 2-fluorophenyl(5-methoxy-1H-2-indolyl)-1-methanone] | 1.03 | ~0.2 (≈ 0.743 µM) |
| COc1ccc2[nH]c(C(=O)c3cccc(C(F)(F)F)c3)cc2c1 [Example D-68901, 5-methoxy-1H-2-indolyl(3-trifluoromethylphenyl)-1-methanone] | 1.46 | ~0.01 (≈ 0.0313 µM) |
| COc1ccc2[nH]c(C(=O)c3cc(C)ccc3C)cc2c1 [Example D-68906, 5-methoxy-1H-2-indolyl(2,5-dimethylphenyl)-1-methanone] | 5.19 | ~0.2 (≈ 0.716 µM) |
| COc1ccc2[nH]c(C(=O)c3ccccc3C)cc2c1 [Example D-70038, 5-methoxy-1H-2-indolyl(2-methylphenyl)-1-methanone] | 4.84 | ~0.5 (≈ 1.88 µM) |
| NCOc1c(C(=O)c2ccccc2N)[nH]c2ccc(O)cc12 [Example D-70046] | 2.44 | ~2 (≈ 6.73 µM) |
| COc1ccc2[nH]c(C(=O)c3ccccc3N)cc2c1 [Example D-70047, 5-methoxy-1H-2-indolyl(2-aminophenyl)-1-methanone] | 6.68 | ~2 (≈ 7.51 µM) |
| COc1ccccc1C(=O)c1cc2cc(C)ccc2[nH]1 [Example D-70289, 5-methyl-1H-2-indolyl(2-methoxyphenyl)-1-methanone] | 3.54 | ~0.1 (≈ 0.377 µM) |
| COc1ccc2[nH]c(C(=O)c3cccs3)cc2c1 [Example D-70438] | 2.7 |  |
| COc1ccc2[nH]c(C(=O)c3cccc(N)c3)cc2c1 [Example D-81167, 5-methoxy-1H-2-indolyl(3-aminophenyl)-1-methanone] | 0.99 | 0.089 (≈ 0.334 µM) |
| COc1ccc2[nH]c(C(=O)c3cccc(OC(F)(F)F)c3)cc2c1 [Example D-81194] | 1.74 | 0.086 (≈ 0.257 µM) |
| COc1ccc2[nH]c(C(=O)c3cccc(SC(F)F)c3)cc2c1 [Example D-81196] | 2.05 | 0.134 (≈ 0.402 µM) |
| COc1ccc2[nH]c(C(=O)c3cccc(O)c3)cc2c1 [Example D-81755] | 0.66 | 0.063 (≈ 0.236 µM) |
| COc1ccc2[nH]c(C(=O)c3cccc(OC(=O)CCO)c3)cc2c1 [Example D-81756] | 0.85 | 0.093 (≈ 0.274 µM) |
| CC[C@]1(O)C[C@H]2CN(CCc3c([nH]c4ccccc34)[C@@](C(=O)OC)(c3cc4c(cc3OC)N(C=O)[C@H]3[C@@](O)(C(=O)OC)[C@H](OC(C)=O)[C@]5(CC)C=CCN6CC[C@]43[C@@H]65)C2)C1 [Vincristin, Vincristine, reference compound] | 0.09 |  |
